In this assay the target is T1, integrin α4β7 (RPMI8866 human cells adhering to MAdCAM-1) (Homo sapiens, UniProt P13612+P26010).
T1 construct: RMP18866 cells, which express integrin α4β7; host or cells: RPMI8866
T1 sequence (P13612 34-1032): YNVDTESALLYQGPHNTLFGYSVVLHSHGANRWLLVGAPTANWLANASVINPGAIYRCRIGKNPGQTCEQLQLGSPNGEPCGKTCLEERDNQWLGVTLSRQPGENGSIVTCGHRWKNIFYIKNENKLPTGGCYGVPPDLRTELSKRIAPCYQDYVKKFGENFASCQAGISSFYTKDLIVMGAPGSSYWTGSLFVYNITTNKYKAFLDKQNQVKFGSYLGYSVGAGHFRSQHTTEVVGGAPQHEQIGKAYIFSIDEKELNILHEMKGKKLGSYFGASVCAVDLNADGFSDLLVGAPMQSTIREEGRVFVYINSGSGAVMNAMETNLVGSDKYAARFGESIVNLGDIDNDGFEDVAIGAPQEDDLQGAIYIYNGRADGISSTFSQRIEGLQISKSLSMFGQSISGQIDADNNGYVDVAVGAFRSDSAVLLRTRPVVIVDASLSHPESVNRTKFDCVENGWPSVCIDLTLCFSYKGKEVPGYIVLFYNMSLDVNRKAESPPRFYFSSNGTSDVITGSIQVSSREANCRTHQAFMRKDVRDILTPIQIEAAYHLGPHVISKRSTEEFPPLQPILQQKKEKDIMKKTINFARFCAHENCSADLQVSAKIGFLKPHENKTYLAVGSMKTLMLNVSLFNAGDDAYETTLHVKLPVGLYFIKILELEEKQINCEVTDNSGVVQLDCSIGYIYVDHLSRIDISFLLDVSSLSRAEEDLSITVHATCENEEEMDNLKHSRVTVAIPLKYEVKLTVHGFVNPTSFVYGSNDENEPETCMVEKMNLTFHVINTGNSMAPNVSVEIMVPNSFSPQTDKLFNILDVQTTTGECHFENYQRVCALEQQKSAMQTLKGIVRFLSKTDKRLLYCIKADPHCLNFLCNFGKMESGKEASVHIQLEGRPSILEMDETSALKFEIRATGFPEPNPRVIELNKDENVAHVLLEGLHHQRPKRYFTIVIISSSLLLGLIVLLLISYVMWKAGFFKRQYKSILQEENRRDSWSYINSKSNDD
T1 sequence (P26010 20-798): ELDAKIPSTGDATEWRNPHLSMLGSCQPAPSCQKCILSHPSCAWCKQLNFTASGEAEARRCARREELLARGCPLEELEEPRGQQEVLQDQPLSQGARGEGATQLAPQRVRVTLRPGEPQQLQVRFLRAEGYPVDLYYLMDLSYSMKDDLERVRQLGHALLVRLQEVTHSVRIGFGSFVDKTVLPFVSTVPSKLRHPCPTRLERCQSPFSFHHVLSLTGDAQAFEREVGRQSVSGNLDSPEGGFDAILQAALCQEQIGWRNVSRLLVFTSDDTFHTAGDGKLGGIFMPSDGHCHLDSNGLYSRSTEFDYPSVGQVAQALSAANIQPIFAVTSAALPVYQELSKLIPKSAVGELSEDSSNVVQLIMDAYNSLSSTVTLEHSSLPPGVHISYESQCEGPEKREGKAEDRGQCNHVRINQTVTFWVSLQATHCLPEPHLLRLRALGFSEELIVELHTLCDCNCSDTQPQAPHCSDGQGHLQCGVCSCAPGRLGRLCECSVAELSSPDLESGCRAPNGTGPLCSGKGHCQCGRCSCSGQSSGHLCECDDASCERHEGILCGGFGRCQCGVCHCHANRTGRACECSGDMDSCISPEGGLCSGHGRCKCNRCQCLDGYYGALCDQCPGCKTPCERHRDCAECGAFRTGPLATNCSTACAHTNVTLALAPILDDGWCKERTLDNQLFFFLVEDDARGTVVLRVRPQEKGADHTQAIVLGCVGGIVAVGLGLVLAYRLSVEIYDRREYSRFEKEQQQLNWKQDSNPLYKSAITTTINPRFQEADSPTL
Nature of the assay: Integrin α4β7-MAdCAM cell adhesion assay (RPMI8866 cells). Type of assay: cell-based. The settings on record: RPMI8866 cells adhering to MAdCAM; read-out: RPMI8866 Adhesion α4β7/MAdCAM IC50. How it is done: Integrin α4β7-MAdCAM Cell Adhesion Assay
RPMI8866 cells were resuspended at 10 million cells/ml in PBS containing […] and incubated at 37° C. for 30 min in a 50 ml tube. […] The plate was emptied by inverting and blotting on paper towels and washed manually twice with PBS. 100 μl PBS was then added to each well. […] To calculate the dose response, the fluorescence value of control wells not containing cells was subtracted from each test well.

Turning to `CC(C)C[C@@H]1NC(=O)c2ccc(-c3ccc(N4CCN(C(=O)CCSCCC(=O)N5CCN(c6ccc(-c7ccc8cc7CNC(=O)[C@@H]7CCCN7[C@H](C(=O)NC(C)(C)C)[C@H](C)NC(=O)[C@H]([C@@H](C)O)NC(=O)[C@H](CC(=O)O)NC(=O)[C@H](CC(C)C)NC8=O)cc6)CC5)CC4)cc3)c(c2)CNC(=O)[C@@H]2CCCN2[C@H](C(=O)NC(C)(C)C)[C@H](C)NC(=O)[C@H]([C@@H](C)O)NC(=O)[C@H](CC(=O)O)NC1=O` [Compound 473], the IC50 is 63 nM. The same measure for `CC(C)C[C@@H]1NC(=O)c2ccc(-c3ccc(N4CCN(C(=O)c5ncn(C)c5C(=O)N5CCN(c6ccc(-c7ccc8cc7CNC(=O)[C@@H]7CCCN7[C@H](C(=O)NC(C)(C)C)[C@H](C)NC(=O)[C@H]([C@@H](C)O)NC(=O)[C@H](CC(=O)O)NC(=O)[C@H](CC(C)C)NC8=O)cc6)CC5)CC4)cc3)c(c2)CNC(=O)[C@@H]2CCCN2[C@H](C(=O)NC(C)(C)C)[C@H](C)NC(=O)[C@H]([C@@H](C)O)NC(=O)[C@H](CC(=O)O)NC1=O` [Compound 476]: 32 nM; for `CC(C)C[C@@H]1NC(=O)c2ccc(-c3ccc(N4CCN(C(=O)c5cccc(-c6ccccc6C(=O)N6CCN(c7ccc(-c8ccc9cc8CNC(=O)[C@@H]8CCCN8[C@H](C(=O)NC(C)(C)C)[C@H](C)NC(=O)[C@H]([C@@H](C)O)NC(=O)[C@H](CC(=O)O)NC(=O)[C@H](CC(C)C)NC9=O)cc7)CC6)c5)CC4)cc3)c(c2)CNC(=O)[C@@H]2CCCN2[C@H](C(=O)NC(C)(C)C)[C@H](C)NC(=O)[C@H]([C@@H](C)O)NC(=O)[C@H](CC(=O)O)NC1=O` [Compound 478]: 34 nM; for `CC(C)C[C@@H]1NC(=O)c2ccc(-c3ccc(N4CCN(C(=O)CC(=O)N5CCN(c6ccc(-c7ccc8cc7CNC(=O)[C@@H]7CCCN7[C@H](C(=O)NC(C)(C)C)[C@H](C)NC(=O)[C@H]([C@@H](C)O)NC(=O)[C@H](CC(=O)O)NC(=O)[C@H](CC(C)C)NC8=O)cc6)CC5)CC4)cc3)c(c2)CNC(=O)[C@@H]2CCCN2[C@H](C(=O)NC(C)(C)C)[C@H](C)NC(=O)[C@H]([C@@H](C)O)NC(=O)[C@H](CC(=O)O)NC1=O` [Compound 483]: 29 nM.

As to `CC(C)C[C@@H]1NC(=O)c2ccc(-c3ccc(N4CCN(C(=O)CCCC(=O)N5CCN(c6ccc(-c7ccc8cc7CNC(=O)[C@@H]7CCCN7[C@H](C(=O)NC(C)(C)C)[C@H](C)NC(=O)[C@H]([C@@H](C)O)NC(=O)[C@H](CC(=O)O)NC(=O)[C@H](CC(C)C)NC8=O)cc6)CC5)CC4)cc3)c(c2)CNC(=O)[C@@H]2CCCN2[C@H](C(=O)NC(C)(C)C)[C@H](C)NC(=O)[C@H]([C@@H](C)O)NC(=O)[C@H](CC(=O)O)NC1=O` [Compound 485], the IC50 was found to be 30 nM. With `CC(C)C[C@@H]1NC(=O)c2ccc(-c3ccc(N4CCN(C(=O)CCCCC(=O)N5CCN(c6ccc(-c7ccc8cc7CNC(=O)[C@@H]7CCCN7[C@H](C(=O)NC(C)(C)C)[C@H](C)NC(=O)[C@H]([C@@H](C)O)NC(=O)[C@H](CC(=O)O)NC(=O)[C@H](CC(C)C)NC8=O)cc6)CC5)CC4)cc3)c(c2)CNC(=O)[C@@H]2CCCN2[C@H](C(=O)NC(C)(C)C)[C@H](C)NC(=O)[C@H]([C@@H](C)O)NC(=O)[C@H](CC(=O)O)NC1=O` [Compound 486], the IC50 stood at 42 nM.

As for `CC(C)C[C@@H]1NC(=O)c2ccc(-c3ccc(N4CCN(C(=O)CCCCCCC(=O)N5CCN(c6ccc(-c7ccc8cc7CNC(=O)[C@@H]7CCCN7[C@H](C(=O)NC(C)(C)C)[C@H](C)NC(=O)[C@H]([C@@H](C)O)NC(=O)[C@H](CC(=O)O)NC(=O)[C@H](CC(C)C)NC8=O)cc6)CC5)CC4)cc3)c(c2)CNC(=O)[C@@H]2CCCN2[C@H](C(=O)NC(C)(C)C)[C@H](C)NC(=O)[C@H]([C@@H](C)O)NC(=O)[C@H](CC(=O)O)NC1=O` [Compound 487], the IC50 came to 65 nM. In the case of `CC(C)C[C@@H]1NC(=O)c2ccc(-c3ccc(N4CCN(C(=O)CCCCCCCC(=O)N5CCN(c6ccc(-c7ccc8cc7CNC(=O)[C@@H]7CCCN7[C@H](C(=O)NC(C)(C)C)[C@H](C)NC(=O)[C@H]([C@@H](C)O)NC(=O)[C@H](CC(=O)O)NC(=O)[C@H](CC(C)C)NC8=O)cc6)CC5)CC4)cc3)c(c2)CNC(=O)[C@@H]2CCCN2[C@H](C(=O)NC(C)(C)C)[C@H](C)NC(=O)[C@H]([C@@H](C)O)NC(=O)[C@H](CC(=O)O)NC1=O` [Compound 488], the IC50 was determined as 34 nM.

In the case of `CC(C)C[C@@H]1NC(=O)c2ccc(-c3ccc(N4CCN(C(=O)CCCCCCCCC(=O)N5CCN(c6ccc(-c7ccc8cc7CNC(=O)[C@@H]7CCCN7[C@H](C(=O)NC(C)(C)C)[C@H](C)NC(=O)[C@H]([C@@H](C)O)NC(=O)[C@H](CC(=O)O)NC(=O)[C@H](CC(C)C)NC8=O)cc6)CC5)CC4)cc3)c(c2)CNC(=O)[C@@H]2CCCN2[C@H](C(=O)NC(C)(C)C)[C@H](C)NC(=O)[C@H]([C@@H](C)O)NC(=O)[C@H](CC(=O)O)NC1=O` [Compound 489], the IC50 was found to be 40 nM.

For the compound `CC(C)C[C@@H]1NC(=O)c2ccc(-c3ccc(N4CCN(C(=O)[C@H]5CCCC[C@H]5C(=O)N5CCN(c6ccc(-c7ccc8cc7CNC(=O)[C@@H]7CCCN7[C@H](C(=O)NC(C)(C)C)[C@H](C)NC(=O)[C@H]([C@@H](C)O)NC(=O)[C@H](CC(=O)O)NC(=O)[C@H](CC(C)C)NC8=O)cc6)CC5)CC4)cc3)c(c2)CNC(=O)[C@@H]2CCCN2[C@H](C(=O)NC(C)(C)C)[C@H](C)NC(=O)[C@H]([C@@H](C)O)NC(=O)[C@H](CC(=O)O)NC1=O` [Compound 491], the IC50 was 23 nM. Consider `CC(C)C[C@@H]1NC(=O)c2ccc(-c3ccc(N4CCN(C(=O)CC[C@@H](N)C(=O)N5CCN(c6ccc(-c7ccc8cc7CNC(=O)[C@@H]7CCCN7[C@H](C(=O)NC(C)(C)C)[C@H](C)NC(=O)[C@H]([C@@H](C)O)NC(=O)[C@H](CC(=O)O)NC(=O)[C@H](CC(C)C)NC8=O)cc6)CC5)CC4)cc3)c(c2)CNC(=O)[C@@H]2CCCN2[C@H](C(=O)NC(C)(C)C)[C@H](C)NC(=O)[C@H]([C@@H](C)O)NC(=O)[C@H](CC(=O)O)NC1=O` [Compound 495], for which the IC50 came to 30 nM. For the compound `CC(C)C[C@@H]1NC(=O)c2ccc(-c3ccc(N4CCN(C(=O)Cc5ccccc5C(=O)N5CCN(c6ccc(-c7ccc8cc7CNC(=O)[C@@H]7CCCN7[C@H](C(=O)NC(C)(C)C)[C@H](C)NC(=O)[C@H]([C@@H](C)O)NC(=O)[C@H](CC(=O)O)NC(=O)[C@H](CC(C)C)NC8=O)cc6)CC5)CC4)cc3)c(c2)CNC(=O)[C@@H]2CCCN2[C@H](C(=O)NC(C)(C)C)[C@H](C)NC(=O)[C@H]([C@@H](C)O)NC(=O)[C@H](CC(=O)O)NC1=O` [Compound 496], the IC50 was determined as 41 nM. The same measure for `CC(C)C[C@@H]1NC(=O)c2ccc(-c3ccc(N4CCN(C(=O)c5cccc(C(=O)N6CCN(c7ccc(-c8ccc9cc8CNC(=O)[C@@H]8CCCN8[C@H](C(=O)NC(C)(C)C)[C@H](C)NC(=O)[C@H]([C@@H](C)O)NC(=O)[C@H](CC(=O)O)NC(=O)[C@H](CC(C)C)NC9=O)cc7)CC6)c5)CC4)cc3)c(c2)CNC(=O)[C@@H]2CCCN2[C@H](C(=O)NC(C)(C)C)[C@H](C)NC(=O)[C@H]([C@@H](C)O)NC(=O)[C@H](CC(=O)O)NC1=O` [Compound 497]: 25 nM.

Source of the values: US11713338B2, “Cyclic peptides multimers targeting α-4-β-7 integrin” (priority 2016, dated 2023).
